PMC10011747, “Targeting androgen receptor and the variants by an orally bioavailable Proteolysis Targeting Chimeras compound in castration resistant prostate cancer” (eBioMedicine, 2023)

Key:
AR NTD (221–320) = biological target: T1, AR NTD (221–320) (Homo sapiens, UniProt P10275); assay: Affinity selection mass spectrometer (ASMS) binding assay; conditions: 100 nM compound with 100 nM GST-AR-NTD, 1 h 37 °C; percentage of input compound recovered
T1 construct: GST tagged AR-NTD protein (221–320) (Abcam ab157902); purchased Abcam ab157902; host or cells: wheat germ (datasheet)
T1 sequence (P10275 221-320): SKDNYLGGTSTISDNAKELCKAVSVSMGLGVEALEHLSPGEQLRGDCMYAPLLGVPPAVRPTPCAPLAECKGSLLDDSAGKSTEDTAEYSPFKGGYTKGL
Experimental: Affinity selection mass spectrometer (ASMS)[40] binding assay was employed for the screen and relative binding affinity assessment of AR NTD binding compounds. Briefly, GST tagged AR-NTD protein (221–320) (Abcam ab157902) at final concentration of 100 nM was incubated with 100 nM of individual candidate compounds in PBS for 1 h at 37 °C. The protein-compound mixture was filtered through 10K MWCO pore sized Nanosep centrifugal column (PALL Life science) with thorough wash steps to separate protein-bound and unbound compounds. The protein-bound compounds were subsequently extracted and analyzed by ABSCIEX 4000 QTRAP LC-ESI MS/MS (AB Sciex, Framingham, MA) coupled to an Agilent 1200 HPLC system. A Waters S XBridge RP18, 3.5 μm, 4.6 × 20 mm column was used as the stationary phase (Waters Corporation, Milford, MA, USA). Gradient elution was carried out using water with 0.1% formic acid (solvent A) and acetonitrile with 0.1% formic acid (solvent B) as a mobile phase. Positive ion polarity scanning was used in electrospray (ESI) mass-triggered fraction collection to monitor the target mass. Quantification of protein-bound compounds was determined against calibration curves established with drug standards. For relative binding affinity assessment, same procedure and condition was carried out for each compound without target protein incubated in the reaction as background controls. Relative binding affinity was calculated as percentage of input compound quantity after background value subtraction.

CWR22Rv1 cells = assay: alamarBlue cell viability, CWR22Rv1; type: cell-based; conditions: Homo sapiens, CWR22Rv1, 168 h; 7 days treatment, normal hormone condition
Experimental: Cells were seeded in triplicate in 96-well plates 1 day prior to drug treatment for all assays. For viability test and IC50 assessment, the alamarBlue™ Cell Viability Reagent (Thermo Fisher Scientific) was added to cells 7 days after PROTAC treatment, followed by fluorescence detection as the manufacturer instructed. The IC50 was calculated by dose-inhibition regression. For proliferation monitoring, 2, 4, 6 and 8 days after PROTAC treatment (day 0), viable cells were detected by MTT Cell Proliferation Kit I (Sigma–Aldrich) according to the manufacturer's instructions. Cellular caspase activity was measured by Caspase-Glo 3/7 Assay System (Promega) 1 or 2 days after the drug treatment.

[1] = In vitro stability in plasma; type: in vitro ADME; conditions: mouse, BALB/c mice plasma, 37 °C, read-out: Plasma stability T1/2
Experimental: The in vitro stability of the PROTAC compounds was performed in BALB/C (BALB/cAnNCrlBltw) mice plasma. The reactions were initiated by adding 10 μM PROTAC compounds to 0.5 mL of pre-warmed plasma solution. The assays were performed in Thermomixer at 37 °C. During the incubation, 20 μL samples were taken at 0, 30, 60, 120, and 240 min time points, and added to 120 μL of acetonitrile to deproteinize the plasma. After 10 min of centrifugation at 14,000 rpm, the supernatants were collected for subsequent HPLC-UV analysis (Waters 1525 Binary and 2707 Autosampler).

[2] = Metabolic stability in liver microsomes; type: in vitro ADME; conditions: pooled liver microsomes, pH 7.4, mouse CD-1 liver microsome 0.8 mg/mL, read-out: MLM stability T1/2
Experimental: The mouse CD-1 pooled liver microsome (Corning Product ID: 452701, Lot: 0010003) was used to test compound stability. The reaction was carried out in 100 mM, pH 7.4 phosphate buffer containing microsome (0.8 mg/mL), NADP^+ (1.3 mM), glucose-6-phosphate (3.3 mM), glucose-6-phosphate dehydrogenase (0.4 U/mL), magnesium chloride (3.3 mM) and the test article (1 μM) with 1% (v/v) final concentration of DMSO. The reaction was incubated at 37 °C with shaking. At 0, 10, 20, and 30 min time points, 20 μL of the reaction mixture was taken and quenched immediately with 120 μL acetonitrile. The quenched sample were centrifuged, and the supernatant was then analyzed by LC-MS/MS (ABI4000Q-TRAP). 1 μM warfarin and 1 μM verapamil with same reaction conditions was used as negative and positive control, respectively.

SMILES	ASMS relative binding (%) (AR NTD (221–320))	IC50 (CWR22Rv1 cells) [µM]	half-life at 10 μM [1] [h]	half-life at 1 μM [2] [h]
Cc1ncsc1-c1ccc(CNC(=O)[C@@H]2C[C@H](O)CN2C(=O)[C@@H](NC(=O)COCCCCOc2ccc(C3CCN(C4=Nn5c(nnc5C(F)(F)F)CC4)CC3)cc2)C(C)(C)C)cc1 [ITRI-90, (2S,4S)-1-((S)-3,3-dimethyl-2-(2-(4-(4-(1-(3-(trifluoromethyl)-7,8-dihydro-[1,2,4]triazolo[4,3-b]pyridazin-6-yl)piperidin-4-yl)phenoxy)butoxy)acetamido)butanoyl)-4-hydroxy-N-(4-(4-methylthiazol-5-yl)benzyl)pyrrolidine-2-carboxamide]	15.9	4.13 ± 1.93	> 4	> 0.5
Cc1ncsc1-c1ccc(CNC(=O)[C@@H]2C[C@H](O)CN2C(=O)[C@@H](NC(=O)COCCCCCCOc2ccc(C3CCN(C4=Nn5c(nnc5C(F)(F)F)CC4)CC3)cc2)C(C)(C)C)cc1 [ITRI-125, (2S,4S)-1-((S)-3,3-dimethyl-2-(2-(6-(4-(1-(3-(trifluoromethyl)-7,8-dihydro-[1,2,4]triazolo[4,3-b]pyridazin-6-yl)piperidin-4-yl)phenoxy)hexyloxy)acetamido)butanoyl)-4-hydroxy-N-(4-(4-methylthiazol-5-yl)benzyl)pyrrolidine-2-carboxamide]	13.6	6.92 ± 6.23	> 4	> 0.5
O=C1CCC(N2Cc3c(NC(=O)COCCCCOc4ccc(C5CCN(C6=Nn7c(nnc7C(F)(F)F)CC6)CC5)cc4)cccc3C2=O)C(=O)N1 (stereo not shown) [ITRI-126, N-(2-(2,6-dioxopiperidin-3-yl)-1-oxoisoindolin-4-yl)-2-(4-(4-(1-(3-(trifluoromethyl)-7,8-dihydro-[1,2,4]triazolo[4,3-b]pyridazin-6-yl)piperidin-4-yl)phenoxy)butoxy)acetamide]	20	0.071 ± 0.017		
